“Also recorded” adds a separate entry of the source. Like-named read-outs stand apart in the source and are kept apart here.
Legend:
[1] = Spontaneous nocturnal food intake; assay type: in vivo, rat; details: for Decrease in FI compared to veh.: 2 hr time point
From the text: All animal studies were approved by the Institutional Animal Care and Use Committee. Male Sprague Dawley rats on normal chow (8 weeks old, 250-300 g on arrival, 300-350 g on test day) were obtained from Charles River. After arrival, animals were individually housed and placed on powdered rat chow. Rats were maintained on a 12-hr light/dark cycle and received food and water ad libitum. In all studies CE-178253 and veh (0.5% methyl cellulose) administration to rats and mice was by oral gavage.
For the spontaneous, nocturnal FI assay, rats were administered veh. (0.5% methyl cellulose) or CE-178253 30 min prior to the start of the dark phase. Food consumption was monitored with electronic scales, and consumption was recorded every 10 min for 12 hr using an automated FI system (Columbus Instruments, Columbus, OH).
The first FI model used for determining anorectic efficacy of CE-178253 was spontaneous nocturnal feeding in rats. In rodents, most feeding activity takes place during the dark phase (nocturnal feeding cycle). In this model, male S-D rats were orally administered compound 30 min prior to the onset of the nocturnal phase. […] In addition, the effect of treatment on hourly FI was also assessed. […] No other time points in the interval analysis reach statistical significance. […] Cumulative food intake at the 2.5 hr time point was 3.2 ± 0.3, 2.4 ± 0.2, 0.5 ± 0.1 and 0.2 ± 0.1 in the veh, 0.3 mg/kg, 1 mg/kg, 3 mg/kg treated rats, respectively.

GPR55 = GPR55 (Homo sapiens, UniProt Q9Y2T6); assay: GPR55 functional assay; assay type: biochemical; details: 10 μM
GPR55, sequence (Q9Y2T6 whole entry, species assumed): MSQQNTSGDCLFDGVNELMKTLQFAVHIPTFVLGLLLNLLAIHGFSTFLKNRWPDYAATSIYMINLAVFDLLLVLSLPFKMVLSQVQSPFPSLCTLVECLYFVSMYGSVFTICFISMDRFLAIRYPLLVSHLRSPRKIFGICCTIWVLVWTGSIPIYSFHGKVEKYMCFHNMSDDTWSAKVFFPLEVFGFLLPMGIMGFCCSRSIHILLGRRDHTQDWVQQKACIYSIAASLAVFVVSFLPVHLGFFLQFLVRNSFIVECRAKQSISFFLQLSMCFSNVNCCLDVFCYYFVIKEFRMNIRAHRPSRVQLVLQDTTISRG
From the text: Rimonabant also binds weakly to the Vanilloid 1 (TRPV1) receptor channel. […] CE-178253 was not evaluated against TRPM8. Rimonabant has been reported to bind to TRPM8 [21].

[2] = Ten day DIO mouse food intake and body weight study; assay type: in vivo; details: 10-day, DIO mice
Method: Male, 14 week old C57/Bl6/6J mice which had been maintained on a high fat diet (45% kcal from fat) for 6 weeks were selected for the DIO weight loss study. The animals body weights ranged at least 5 standard deviations from age-matched chow-fed control animals mean body weight. Mice were singly housed. The mean starting weight of all animals was 38.9 ± 0.5 g. On Day 0, mice were randomly assigned to treatment groups (n = 10 per group). Mice were dosed daily over 10 days, starting approximately at 30 minutes before the start of the 12 hr dark cycle. BW and food intake were recorded daily.
DIO mice were treated once daily with veh. (0.5% MC) or CE-178253 at 1 mg/kg or 3 mg/kg, p.o., in a 10-day study (Figures 8A and 8B). […] The lower dose of CE-178253 (1 mg/kg, p.o.) provided for a non-significant 8% reduction in FI, whereas the 3 mg/kg dose led to a significant 31% reduction in cumulative FI. As with other CB1 receptor antagonists, the food intake reduction was maximal over the first five days and declined over time (Figure 8A). However, FI reductions were still evident on the final day of dosing at the high dose. […] The high dose group (3 mg/kg) lost, on average 18% BW.

human CB1 receptor = biological target: T1, human CB1 receptor (Homo sapiens, UniProt P21554); assay: Competition radioligand binding, human CB1
T1 construct: expressed in transfected cells
T1 sequence (P21554 whole entry): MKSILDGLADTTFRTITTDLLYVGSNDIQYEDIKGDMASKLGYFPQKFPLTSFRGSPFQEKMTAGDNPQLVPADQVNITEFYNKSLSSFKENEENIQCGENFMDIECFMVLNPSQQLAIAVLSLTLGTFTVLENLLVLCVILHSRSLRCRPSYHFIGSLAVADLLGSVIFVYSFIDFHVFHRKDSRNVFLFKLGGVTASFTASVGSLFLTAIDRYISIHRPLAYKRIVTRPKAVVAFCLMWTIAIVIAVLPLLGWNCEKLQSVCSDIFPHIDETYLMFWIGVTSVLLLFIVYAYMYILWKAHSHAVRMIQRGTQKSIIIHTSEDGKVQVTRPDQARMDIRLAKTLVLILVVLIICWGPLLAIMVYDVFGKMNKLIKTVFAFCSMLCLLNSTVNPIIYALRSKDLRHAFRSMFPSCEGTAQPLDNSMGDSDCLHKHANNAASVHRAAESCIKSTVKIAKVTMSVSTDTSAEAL
Method: HEK293 (CB1) or CHO (CB1 and CB2) cells (ATCC) were stably transfected with the human CB1 or CB2 receptors. Rat brain, and recombinant CB1 and CB2 and membranes were prepared as described. A Pierce™ BCA kit was used to determine protein concentrations.
10 μg of membranes per well from human CB1 and CB 2 receptor transfected cells and rat brain was used in the assay. The plates were covered and placed in an incubator at 30°C for 60 min. At the end of the incubation period 125 μl of stop buffer (10% BSA plus TME) was added to the reaction plate. The plates were then harvested onto GF/C filter plates (Perkin Elmer Life Sciences) presoaked in BSA (5 mg/ml) plus TME. Each filter was washed twice with TME and dried overnight. In the morning the filters were counted on a Wallac Trilux™ counter.
Saturation and competition radioligand binding assays were used to characterize membranes prepared from human recombinant CB1 and CB2 and rat brain membranes.

[3] = Unbound plasma concentration of CE-178253; assay type: in vivo, rat; details: for Unbound Plasma Concentration (± S-D): indirect calorimetry study; for concentration at […]: Sprague-Dawley, rat, plasma, oral, fast-induced refeeding study, read-out: Unbound Plasma Concentration (± S-D)
Method: Plasma bound fractions for CE-178253 were determined using an equilibrium dialysis assay, as previously described. Spectra-Por 2 membranes (Spectrum Laboratories Inc., Rancho Dominguez, CA) with a molecular cut-off of 12-14 kDa were used for the dialysis. Equilibrium of the system was achieved by incubating the apparatus for 4.5 hr in a 37°C reciprocating water bath (set at 155 rpm). A standard curve was set up over the range 1-1000 ng/mL. All samples were quantified using liquid chromatography/tandem mass spectrometry using a PE Sciex API 3000 spectrometer. For plasma, the unbound fraction was determined as the ratio of concentrations determined in buffer and plasma.

brain CB1 receptor = biological target: T2, brain CB1 receptor (Rattus norvegicus, UniProt P20272); assay: Ex vivo brain receptor occupancy; assay type: in vivo
T2 construct: Brain homogenates were prepared by adding TME buffer to pre-weighed tissue; from tissue; host or cells: brain homogenate of Sprague Dawley rats dosed p.o
T2 sequence (P20272 whole entry): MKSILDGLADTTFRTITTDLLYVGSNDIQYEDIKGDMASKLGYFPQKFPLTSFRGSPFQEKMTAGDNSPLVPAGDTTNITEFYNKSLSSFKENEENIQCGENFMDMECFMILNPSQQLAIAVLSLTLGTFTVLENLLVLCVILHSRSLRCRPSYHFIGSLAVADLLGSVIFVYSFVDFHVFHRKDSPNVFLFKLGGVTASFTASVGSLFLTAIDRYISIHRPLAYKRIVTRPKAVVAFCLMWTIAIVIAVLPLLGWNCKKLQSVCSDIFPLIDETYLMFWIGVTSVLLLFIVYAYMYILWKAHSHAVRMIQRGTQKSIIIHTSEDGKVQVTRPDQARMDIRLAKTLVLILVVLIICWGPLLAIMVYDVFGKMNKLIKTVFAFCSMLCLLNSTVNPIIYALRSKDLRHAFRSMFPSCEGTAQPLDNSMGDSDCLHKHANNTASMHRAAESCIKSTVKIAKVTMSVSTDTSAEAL
Method: An ex vivo brain receptor occupancy assay was used to calculate the in vivo receptor occupancy of CE-178253 at selected doses. […] Brains were removed from the rats 2 hr after return of food. […] The homogenate was diluted to a concentration of 2 mg/mL using TME buffer. […] The plates were then covered and incubated for 90 min at room temperature on a plate shaker. Reactions were stopped by the addition of 100 μL ice cold 7.5% BSA in TME. The plates were aspirated then harvested onto GF/C filter plates (Perkin Elmer Life Sciences; Boston, MA) using ice-cold TME buffer. The filter plates had been pre-soaked in 50 μL 0.5% BSA in TME for 60 min. Filters were dried at room temperature for 30 min, after which 25 μL of Microscint™ (Perkin Elmer Life Sciences; Boston, MA) was added to each and the plates analyzed on a Microbeta counter. Care was taken in our assay to minimize drug-tissue dissociation by comparing binding in a time course and under various conditions. […] Experiments were run in triplicate with at least an n = 3 for each treatment group.

CCNC1(C(N)=O)CN(c2nc(C)nc3c(-c4ccc(Cl)cc4)c(-c4ccccc4Cl)nn23)C1 [CE-178253]
Decrease in FI compared to veh. ([1]; 0.3 mg/kg p.o.): 25% | Decrease in FI compared to veh. ([1]; 1 mg/kg p.o.): 84% | Decrease in FI compared to veh. ([1]; 3 mg/kg p.o.): 94% | EC50 ([1]; Rattus norvegicus, unbound plasma concentration (Cave, fu, p, 0-2.5 hr), cumulative FI at 2.5 hr post dose, read-out: Unbound EC50, reduction of food intake): 0.5 nM | Agonist activity at GPR55 (GPR55): No agonist activity was detected; also recorded: GPR55 (no activity at 10 μM) | Reduction in cumulative FI ([2]; 1 mg/kg p.o. once daily, non-significant): 8% | BW lost, on average ([2]; 3 mg/kg p.o. once daily): 18% | Reduction in cumulative FI ([2]; 3 mg/kg p.o. once daily, significant): 31% | Concentration giving complete inhibition of [3H]SR141716A binding (human CB1 receptor; not shown): greater than 10 nM | Ki (human CB1 receptor; read-out: Ki, competition binding, hCB1): 0.33 ± 0.07 nM | Unbound Plasma Concentration (± S-D) ([3]; 1 mg/kg p.o.): 0.8 ± 0.2 nM | Unbound Plasma Concentration (± S-D) ([3]; 3 mg/kg p.o.): 3.8 ± 0.9 nM | concentration at […] ([3]; 0.3 mg/kg p.o.): 0.17 ± 0.02 nM | concentration at […] ([3]; 1 mg/kg p.o.): 1 ± 0.3 nM | concentration at […] ([3]; 3 mg/kg p.o.): 2.7 ± 1 nM | concentration at […] ([3]; 10 mg/kg p.o.): 15.6 ± 1.6 nM | Receptor occupancy required for maximum efficacy (brain CB1 receptor; calculated, energy intake and expenditure models): 50-75% | receptor occupancy at 0.3 mg/kg (brain CB1 receptor; rat, po, 0.3 mg/kg p.o., brains removed 2 hr after return of food, read-out: % Receptor Occupancy (mean ± S-D)): 27 ± 12% | receptor occupancy at 1 mg/kg (brain CB1 receptor; rat, po, 1 mg/kg p.o., brains removed 2 hr after return of food, read-out: % Receptor Occupancy (mean ± S-D)): 64 ± 2% | receptor occupancy at 3 mg/kg (brain CB1 receptor; rat, po, 3 mg/kg p.o., brains removed 2 hr after return of food, read-out: % Receptor Occupancy (mean ± S-D)): 78 ± 6% | receptor occupancy at 10 mg/kg (brain CB1 receptor; rat, po, 10 mg/kg p.o., brains removed 2 hr after return of food, read-out: % Receptor Occupancy (mean ± S-D)): 82 ± 2%

— paper PMC2933614, “Quantitative in vitro and in vivo pharmacological profile of CE-178253, a potent and selective cannabinoid type 1 (CB1) Receptor Antagonist” (BMC Pharmacology, 2010)
